Results as given in US12691068B2, “Modular lipid compounds and two- to three-component lipid nanoparticle compositions” (SunVax mRNA Therapeutics Inc., priority 2022, dated 2026).

Test system: HEK293T cells
Assay: In vitro transfection efficiency of LNPs encapsulating SamRNA-GFP in HEK293T cells (flow cytometry)
Format: cell-based
Conditions: modular lipid/DOPE/DMG-PEG2000 40/10/2 mole ratio, 100 ng RNA, 24 hours
Protocol: The modular lipids of the disclosure were mixed with at least one of ionizable lipid, DOPE, cholesterol (Chol), and/or DMG-PEG2000 in ethanol at a predetermined molar ratio. Ionizable lipid: SamRNA molar ratio of 6:1 was used to prepare an organic phase. SamRNA-LUC or SamRNA-GFP was diluted in 50 mM citrate buffer (pH 4.5, Fisher) or PBS (pH 7.4, Fisher) to prepare an aqueous phase. The SamRNA was stored at −80° C. and was thawed on ice prior to use. The ethanol and aqueous phases were mixed at a 1:3 ratio by pipette. The resultant LNPs were purified by ultrafiltration (100,000 cut-off, MilliporeSigma™ Amicon™ Ultra-15 Centrifugal Filter Units) at 4° C. prior to injection.
LNPs containing SamRNA-GFP or SamRNA-LUC were added into 96-well plate at 100 ng/well pre-seeded with HEK293, C2C12 or MC38 cells. After a 24 hour incubation at 37° C. and 5% CO2, the SamRNA-LUC transfection efficiency was measured by plate reader (Perkin Elmer Envision 2104) and GFP SamRNA transfection efficiency was measured by flow cytometry (BD FACSymphony™ A5 SE Cell Analyzer).
The transfection efficacy of LNPs formulated using modular lipids P161F5, P161F6 or P161F10; DOPE and DMG-PEG2000 (modular lipid/DOPE/DMG-PEG2000, 40/10/2 mole ratio) encapsulating LNP-SamRNA-GFP were studied using HEK293T cells in 96-well plates. […]

Row | Structure (SMILES) | transfection efficiencies compared with four-component LNPs containing MC3 and SM102
1 | CCCCCCCCCCC(CCCCCCCC)CN(C(=O)CCC(C)C1CCC2C3CC(O)C4CC(O)CCC4(C)C3CCC12C)C(CC1CCN(C)CC1)C(=O)NC12CC3CC(CC(C3)C1)C2 (centres unmarked) [P161F10, N-(1-(((1s,3s)-adamantan-1-yl)amino)-3-(1-methylpiperidin-4-yl)-1-oxopropan-2-yl)-4-(3,6-dihydroxy-10,13-dimethylhexadecahydro-1H-cyclopenta[a]phenanthren-17-yl)-N-(2-octyldodecyl)pentanamide] | comparable or higher
2 | CCCCCCCCCCCCC(CCCCCCCCCC)CN(C(=O)CCC(C)C1CCC2C3CC(O)C4CC(O)CCC4(C)C3CCC12C)C(C(=O)NC12CC3CC(CC(C3)C1)C2)C1CCN(CC)CC1 (centres unmarked) [P161F6, N-(2-(((1s,3s)-adamantan-1-yl)amino)-1-(1-ethylpiperidin-4-yl)-2-oxoethyl)-N-(2-decyltetradecyl)-4-(3,6-dihydroxy-10,13-dimethylhexadecahydro-1H-cyclopenta[a]phenanthren-17-yl) pentanamide] | comparable or higher
